From patent publication US8173675B2, “Substituted amino-thiourea compounds for combating animal pests” (BASF SE, priority 2007, dated 2012)

How the values were obtained:
[1] = system: Green Peach Aphid (Myzus persicae); experiment: Green peach aphid (Myzus persicae) test, infested bell pepper leaves dipped in test solution; format: in vivo; details: 120 h, determined after 5 days, read-out: mortality of green peach aphid in comparison with untreated controls
Method: (§1) The active compounds were formulated in a mixture of 50 vol.-% acetone:50 vol.-% water. A nonionic surfactant (Kinetic®) was included in the solution at a volume of 0.01% v/v.
(§2) In the following tests, the formulated solutions of the active compounds were diluted to an active ingredient concentration of 300 ppm, if not otherwise described, and the diluted solutions were applied in the below mentioned tests.
Bell pepper plants at the first true-leaf stage were infested prior to treatment by placing heavily infested leaves from the main aphid colony on top of the treatment plants. The aphids were allowed to transfer overnight to accomplish an infestation of 30-40 aphids per plant and the host leaves were removed. The infested leaves of the test plants were then dipped and agitated in the test solution for 3 seconds and allowed to dry in a fume hood. Test plants were maintained under fluorescent lighting in a 24-hr photoperiod at 25° C. and 20-40% relative humidity. Mortality on the treated plants, relative to mortality on untreated check plants, was determined after 5 days.

[2] = system: Cotton Aphid (Aphis gossypii); experiment: Cotton aphid (Aphis gossypii) test, infested cotton cotyledons dipped in test solution; format: in vivo; details: 120 h, determined after 5 days, read-out: mortality of cotton aphid (Aphis gossypii, mixed life stages) in comparison with untreated controls
Method: as §1, §2
Cotton plants at the cotyledon stage were infested prior to treatment by placing a heavily infested leaf from the main aphid colony on top of each cotyledon. The aphids were allowed to transfer overnight and the host leaf was removed. The infested cotyledons were then dipped and agitated in the test solution for 3 seconds and allowed to dry in a fume hood. Test plants were maintained under fluorescent lighting in a 24-hr photoperiod at 25° C. and 20-40% relative humidity. Aphid mortality on the treated plants, relative to mortality on untreated check plants, was determined after 5 days.

[3] = system: Cowpea Aphid (aphis craccivora); experiment: Cowpea aphid (aphis craccivora) test, colonized potted cowpea plants sprayed; format: in vivo; details: population reduction recorded after 24, 72, and 120 hours
Method: as §2
The active compounds were formulated in 50:50 acetone:water. Potted cowpea plants colonized with 100-150 aphids of various stages were sprayed after the pest population has been recorded. Population reduction was recorded after 24, 72, and 120 hours.

[4] = system: Vetch Aphid (Megoura viciae); experiment: Vetch aphid (Megoura viciae) test, sprayed bean leaf disks in microtiterplates; format: in vivo; details: foliar, 144 h, bean leaf disks sprayed with 2.5 μl, 6 days, read-out: mortality compared to untreated controls
Method: The active compounds were formulated in 1:3 DMSO:water. Bean leaf disks were placed into microtiterplates filled with 0.8% agar-agar and 2.5 ppm OPUS™. The leaf disks were sprayed with 2.5 μl of the test solution and 5 to 8 adult aphids were placed into the microtiterplates which were then closed and kept at 22-24° C. and 35-45% under fluorescent light for 6 days. Mortality was assessed on the basis of vital, reproduced aphids. Tests were replicated 2 times.

[5] = system: Silverleaf Whitefly (bemisia argentifolii); experiment: Silverleaf whitefly (bemisia argentifolii) test, cotton cotyledons dipped, whitefly adults introduced; format: in vivo; details: 72 h, whitefly adults on dipped cotton cotyledons, assessed 3 days after treatment, read-out: mortality compared to untreated controls
Method: as §2
The active compounds were formulated in 50:50 acetone:water and 100 ppm Kinetica™ surfactant.
Selected cotton plants were grown to the cotyledon state (one plant per pot). The cotyledons were dipped into the test solution to provide complete coverage of the foliage and placed in a well-vented area to dry. Each pot with treated seedling was placed in a plastic cup and 10 to 12 whitefly adults (approximately 3-5 day old) were introduced. The insects were colleted using an aspirator and an 0.6 cm, non-toxic TygonÒ tubing (R-3603) connected to a barrier pipette tip. The tip, containing the collected insects, was then gently inserted into the soil containing the treated plant, allowing insects to crawl out of the tip to reach the foliage for feeding. The cups were covered with a reusable screened lid (150 micron mesh polyester screen PeCap from Tetko Inc). Test plants were maintained in the holding room at about 25° C. and 20-40% relative humidity for 3 days avoiding direct exposure to the fluorescent light (24 hour photoperiod) to prevent trapping of heat inside the cup. Mortality was assessed 3 days after treatment of the plants.

melting point [°C] | SMILES | mortality at 300 ppm [1] [%] | mortality at 300 ppm [2] [%] | mortality at 300 ppm [3] [%] | mortality at 2500 ppm [4] [%] | mortality at 300 ppm [5] [%]
– | OCCNC(=S)NC1COc2ccc(F)cc21 (stereo not drawn) [Compound example 1, 1-(5-Fluoro-2,3-dihydro-benzofuran-3-yl)-3-(2-hydroxy-ethyl)-thiourea] | ≥ 75 | ≥ 75 | ≥ 75 | ≥ 75 | –
– | OCCNC(=S)NC1CSc2c(F)cccc21 (stereo not drawn) [Compound example 2, 1-(7-Fluoro-2,3-dihydro-benzo[b]thiophen-3-yl)-3-(2-hydroxy-ethyl)-thiourea] | ≥ 75 | ≥ 75 | ≥ 75 | ≥ 75 | –
– | CC(=O)OCCNC(=S)NC1CSc2c(F)cccc21 (stereo not drawn) [Compound example 3, Acetic acid 2-[3-(7-fluoro-2,3-dihydro-benzo[b]thiophen-3-yl)thioureido]-ethyl ester] | ≥ 75 | – | ≥ 75 | ≥ 75 | ≥ 75
67 to 69 | OCCNC(=S)NC1(c2ccccc2)CCc2ccccc21 (stereo not drawn) [Compound example 4] | – | – | – | – | –
– | CC(=O)OCCNC(=S)NC1c2cccc(F)c2CC1(C)C (stereo not drawn) [Compound example 5] | ≥ 75 | ≥ 75 | ≥ 75 | ≥ 75 | ≥ 75
– | CC1(C)Cc2c(F)cccc2C1NC(=S)NCCO (stereo not drawn) [Compound example 6] | ≥ 75 | ≥ 75 | ≥ 75 | ≥ 75 | –
– | CC(=O)OCCNC(=S)NC1CC(C)c2c(F)cccc21 (stereo not drawn) [Compound example 7] | ≥ 75 | ≥ 75 | – | ≥ 75 | ≥ 75
– | CC1Cc2c(F)cccc2C1NC(=S)NCCO (stereo not drawn) [Compound example 8] | ≥ 75 | ≥ 75 | ≥ 75 | ≥ 75 | –
